# Assay results from US20220324835A1 (Nurix Therapeutics, Inc., priority 2018, published 2022).
# Legend:
# T-cell [1] = experiment: CD25 cell surface staining on T-cells stimulated with anti-CD3 antibody alone (Biological Example 2); assay type: cell-based, human; details: T-cell, fold change over baseline, primary human total T-cells, read-out: CD25 staining Anti-CD3 stimulation; for fold induction at 1 µM: 1 μM Cbl-b inhibitor; for fold induction at 8 µM: 8 μM Cbl-b inhibitor
# T-cell [2] = experiment: IL-2 secretion from T-cells stimulated with anti-CD3 antibody alone (Biological Example 2); assay type: cell-based, human; details: T-cell, fold change over baseline, primary human total T-cells, read-out: IL-2 secretion Anti-CD3 stimulation; for fold induction at 1 µM: 1 μM Cbl-b inhibitor; for fold induction at 8 µM: 8 μM Cbl-b inhibitor
SMILES,fold induction at 1 µM (T-cell [1]),fold induction at 8 µM (T-cell [1]),fold induction at 1 µM (T-cell [2]),fold induction at 8 µM (T-cell [2])
"C[C@H](Sc1nncn1C)c1cccc(NC(=O)c2ccc(Cl)c(C(F)(F)F)n2)c1 [Compound 51, (S)-5-chloro-N-(3-(1-((4-methyl-4H-1,2,4-triazol-3-yl)thio)ethyl)phenyl)-6-(trifluoromethyl)picolinamide]",0.801 to 1,> 1,< 0.05,< 0.05
"Cc1cc(C(=O)Nc2cc([C@H](C)Sc3nncn3C)ccn2)nc(C(F)(F)F)c1 [Compound 103, (S)-4-methyl-N-(4-(1-((4-methyl-4H-1,2,4-triazol-3-yl)thio)ethyl)pyridin-2-yl)-6-(trifluoromethyl)picolinamide]",< 0.6,0.801 to 1,< 0.05,0.051 to 0.1
"Cc1nc2cc([C@H](C)Sc3nncn3C)cc(NC(=O)c3cccc(C(F)(F)F)n3)c2o1 [Compound 130a, (S)-N-(2-methyl-5-(1-((4-methyl-4H-1,2,4-triazol-3-yl)thio)ethyl)benzo[d]oxazol-7-yl)-6-(trifluoromethyl)picolinamide]",0.601 to 0.8,> 1,< 0.05,> 0.201
"C[C@H](Cc1nncn1C)c1cccc(NC(=O)c2cc(C3(O)COC3)cc(C(F)(F)F)n2)c1 [Compound 190, (R)-4-(3-hydroxyoxetan-3-yl)-N-(3-(1-(4-methyl-4H-1,2,4-triazol-3-yl)propan-2-yl)phenyl)-6-(trifluoromethyl)picolinamide]",0.601 to 0.8,> 1,< 0.05,0.101 to 0.15
"C[C@H](Cc1nncn1C)c1cccc(NC(=O)c2cc(C(=O)N3CC[C@](C)(O)C3)ccn2)c1 [Compound 222, 4-((S)-3-hydroxy-3-methylpyrrolidine-1-carbonyl)-N-(3-((R)-1-(4-methyl-4H-1,2,4-triazol-3-yl)propan-2-yl)phenyl)picolinamide]",< 0.6,< 0.6,< 0.05,< 0.05
"C[C@H](Sc1nncn1C)c1cccc(NC(=O)c2cc(C(=O)N3CC(O)C3)ccn2)c1 [Compound 148, (S)-4-(3-hydroxyazetidine-1-carbonyl)-N-(3-(1-((4-methyl-4H-1,2,4-triazol-3-yl)thio)ethyl)phenyl)picolinamide]",< 0.6,0.601 to 0.8,< 0.05,< 0.05
"C[C@H](Cc1nncn1C)c1cccc(NC(=O)c2cc(S(C)(=O)=O)cc(C3CC3)n2)c1 [Compound 198, 6-cyclopropyl-N-[3-[(1R)-1-methyl-2-(4-methyl-1,2,4-triazol-3-yl)ethyl]phenyl]-4-methylsulfonyl-pyridine-2-carboxamide]",0.801 to 1,> 1,0.101 to 0.15,> 0.201
"C[C@H](Cc1nncn1C)c1ccnc(N2Cc3c(cccc3C(F)(F)F)C2=O)c1 [Compound 304b, (R)-2-(4-(1-(4-methyl-4H-1,2,4-triazol-3-yl)propan-2-yl)pyridin-2-yl)-4-(trifluoromethyl)isoindolin-1-one]",< 0.6,< 0.6,< 0.05,< 0.05
"Cn1cnnc1[C@@H]1CC[C@@H]1c1cccc(N2Cc3c(cccc3C(F)(F)F)C2=O)c1 [Compound 283b, 2-(3-((1S,2R)-2-(4-methyl-4H-1,2,4-triazol-3-yl)cyclobutyl)phenyl)-4-(trifluoromethyl)isoindolin-1-one]",0.601 to 0.8,0.801 to 1,0.101 to 0.15,> 0.201
"C[C@H](Sc1nncn1C)c1cccc(NC(=O)c2cc(C(F)(F)F)cc(C(F)(F)F)n2)c1 [Compound 64, (S)-N-(3-(1-((4-methyl-4H-1,2,4-triazol-3-yl)thio)ethyl)phenyl)-4,6-bis(trifluoromethyl)picolinamide]",< 0.6,0.601 to 0.8,< 0.05,< 0.05
"C[C@H](Cc1nnc[nH]1)c1cccc(N2Cc3c(cccc3C(F)(F)F)C2=O)c1 [Compound 262, (R)-2-(3-(1-(4H-1,2,4-triazol-3-yl)propan-2-yl)phenyl)-4-(trifluoromethyl)isoindolin-1-one]",< 0.6,< 0.6,< 0.05,< 0.05
"C[C@H](Cc1nncn1C)c1cccc(NC(=O)c2cc(C(=O)N3C[C@@H](O)C[C@H]3C)ccn2)c1 [Compound 224, 4-((2R,4S)-4-hydroxy-2-methylpyrrolidine-1-carbonyl)-N-(3-((R)-1-(4-methyl-4H-1,2,4-triazol-3-yl)propan-2-yl)phenyl)picolinamide]",< 0.6,< 0.6,0.101 to 0.15,0.101 to 0.15
"COc1nc(C(=O)Nc2cccc([C@H](C)Sc3nncn3C)c2)cc2ccccc12 [Compound 62, (S)-1-methoxy-N-(3-(1-((4-methyl-4H-1,2,4-triazol-3-yl)thio)ethyl)phenyl)isoquinoline-3-carboxamide]",< 0.6,0.801 to 1,< 0.05,0.051 to 0.1
"C[C@H](Sc1nncn1C)c1cccc(NC(=O)c2ccnc(C(F)(F)F)n2)c1 [Compound 75, N-[3-[(1S)-1-[(4-methyl-1,2,4-triazol-3-yl)sulfanyl]ethyl]phenyl]-2-(trifluoromethyl)pyrimidine-4-carboxamide]",0.601 to 0.8,0.801 to 1,< 0.05,0.051 to 0.1
"C[C@H](Sc1nncn1C)c1cccc(NC(=O)c2cncc(C(F)(F)F)n2)c1 [Compound 77, N-[3-[(1S)-1-[(4-methyl-1,2,4-triazol-3-yl)sulfanyl]ethyl]phenyl]-6-(trifluoromethyl)pyrazine-2-carboxamide]",< 0.6,0.601 to 0.8,< 0.05,< 0.05
"COc1cc(C(=O)Nc2cccc([C@H](C)Sc3nncn3C)c2)nc(C(F)(F)F)c1 [Compound 71, (S)-4-methoxy-N-(3-(1-((4-methyl-4H-1,2,4-triazol-3-yl)thio)ethyl)phenyl)-6-(trifluoromethyl)picolinamide]",0.801 to 1,0.801 to 1,0.051 to 0.1,> 0.201
"C[C@H](Cc1nncn1C)c1cc(N[C@@H]2CCOC2)nc(N2Cc3c(cccc3C(F)(F)F)C2=O)c1 (stereo in doubt) [Compound 362, 2-(4-((R)-1-(4-methyl-4H-1,2,4-triazol-3-yl)propan-2-yl)-6-((S)-THF-3-ylamino)pyridin-2-yl)-4-(trifluoromethyl)isoindolin-1-one]",0.601 to 0.8,0.801 to 1,0.051 to 0.1,0.101 to 0.15
"C[C@H](Cc1nncn1C)c1cccc(N2Cc3c(Br)cccc3C2=O)c1 [Compound 256, (R)-4-bromo-2-(3-(1-(4-methyl-4H-1,2,4-triazol-3-yl)propan-2-yl)phenyl)isoindolin-1-one]",0.801 to 1,0.801 to 1,> 0.201,> 0.201
